The target of one experiment is T1, Human HIF-PHD2 (Homo sapiens, UniProt Q9GZT9).
T1 construct: FLAG-tagged full length PHD2 expressed in and purified from baculovirus-infected Sf9 cells; FLAG; made in house; host or cells: baculovirus-infected Sf9 cells
T1 sequence (Q9GZT9 whole entry): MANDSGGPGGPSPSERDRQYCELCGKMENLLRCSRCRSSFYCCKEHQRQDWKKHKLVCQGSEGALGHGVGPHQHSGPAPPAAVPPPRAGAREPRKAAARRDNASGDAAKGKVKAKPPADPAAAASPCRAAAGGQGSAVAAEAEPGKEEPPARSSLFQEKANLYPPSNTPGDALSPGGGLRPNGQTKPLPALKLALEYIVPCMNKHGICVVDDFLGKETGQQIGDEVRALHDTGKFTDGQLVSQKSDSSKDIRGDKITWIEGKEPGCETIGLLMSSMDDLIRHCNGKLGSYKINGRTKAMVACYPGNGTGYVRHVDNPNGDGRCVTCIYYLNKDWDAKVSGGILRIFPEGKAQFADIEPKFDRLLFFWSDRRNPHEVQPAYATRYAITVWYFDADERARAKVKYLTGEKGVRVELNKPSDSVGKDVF
The experiment is described as follows: Inhibition of the hydroxylation of a HIF peptide by PHD2 (time resolved fluorescence, 384-well). The class given is biochemical. To be noted: FLAG-tagged full length PHD2; 0.2 μM 2-oxoglutarate, 0.5 μM HIF-1α peptide; 45 minutes at room temperature; read-out: Human HIF-PHD2 IC50.
`NC(=O)c1ccc(-c2ccc(C3COc4cccc5c(O)c(C(=O)NCC(=O)O)c(=O)n3c45)cc2)cc1` (centres unmarked) [Example 141, N-{[3-(4′-Carbamoylbiphenyl-4-yl)-7-hydroxy-5-oxo-2,3-dihydro-5H-[1,4]oxazino[2,3,4-ij]quinolin-6-yl]carbonyl}glycine]: the IC50 was 6.1 nM.

For `O=C(O)CNC(=O)c1c(O)c2ccc(-c3cccnc3)c3c2n(c1=O)CCO3` [Example 153, N-[(7-Hydroxy-5-oxo-10-pyridin-3-yl-2,3-dihydro-5H-[1,4]oxazino[2,3,4-ij]quinolin-6-yl)carbonyl]glycine], the IC50 turned out to be 3.6 nM. `O=C(O)CNC(=O)c1c(O)c2cccc3c2n(c1=O)C(c1ccc(Cl)cc1)CO3` (centres unmarked) [Example 157, 2-(7-Hydroxy-5-oxo-3-(4-chlorophenyl)-3,5-dihydro-2H-[1,4]oxazino[2,3,4-ij]quinoline-6-carboxamido)acetic acid]: the IC50 is 25 nM.

Still in this experiment, the particulars now being: FLAG-tagged full length PHD2; 0.2 μM 2-oxoglutarate, 0.5 μM HIF-1α peptide; 45 minutes at room temperature; read-out: MS m/z (M + 1)+ and human HIF-PHD2 IC50.
Consider `COc1ncc(-c2ccc3c(O)c(C(=O)NCC(=O)O)c(=O)n4c3c2OCC4c2ccc(C(F)(F)F)cc2)cn1` (centres unmarked) [Example 137, N-({7-hydroxy-10-(2-methoxypyrimidin-5-yl)-5-oxo-3-[4-(trifluoromethyl)phenyl]-2,3-dihydro-5H-[1,4]oxazino[2,3,4-ij]quinolin-6-yl}carbonyl)glycine], for which the IC50 is 14 nM. The same measure, in the same setting: in the case of `O=C(O)CNC(=O)c1c(O)c2ccc(-c3cncnc3)c3c2n(c1=O)C(c1ccc(C(F)(F)F)cc1)CO3` (centres unmarked) [Example 138, N-({7-hydroxy-5-oxo-10-pyrimidin-5-yl-3-[4-(trifluoromethyl)phenyl]-2,3-dihydro-5H-[1,4]oxazino[2,3,4-ij]quinolin-6-yl}carbonyl)glycine] it was 12 nM; in that of `NC(=O)c1cccc(-c2ccc3c(O)c(C(=O)NCC(=O)O)c(=O)n4c3c2OCC4c2ccc(C(F)(F)F)cc2)c1` (centres unmarked) [Example 139, N-({10-(3-carbamoylphenyl)-7-hydroxy-5-oxo-3-[4-(trifluoromethyl)phenyl]-2,3-dihydro-5H-[1,4]oxazino[2,3,4-ij]quinolin-6-yl}carbonyl)glycine], 14 nM. Consider `O=C(O)CNC(=O)c1c(O)c2ccc(-c3ccn[nH]3)c3c2n(c1=O)C(c1ccc(C(F)(F)F)cc1)CO3` (centres unmarked) [Example 140, 2-(7-hydroxy-5-oxo-10-(1H-pyrazol-5-yl)-3-(4-(trifluoromethyl)phenyl)-3,5-dihydro-2H-[1,4]oxazino[2,3,4-ij]quinoline-6-carboxamido)acetic acid], for which the IC50 was 11 nM.

Regarding `O=C(O)CNC(=O)c1c(O)c2cccc3c2n(c1=O)C(c1ccc(-c2cccc(Cl)c2)cc1)CO3` (centres unmarked) [Example 142, N-{[3-(3′-chlorobiphenyl-4-yl)-7-hydroxy-5-oxo-2,3-dihydro-5H-[1,4]oxazino[2,3,4-ij]quinolin-6-yl]carbonyl}glycine], the IC50 came out at 19 nM. Still for that read-out and setting: in the case of `O=C(O)CNC(=O)c1c(O)c2cccc3c2n(c1=O)C(c1ccc(-c2ccc(C(F)(F)F)nc2)cc1)CO3` (centres unmarked) [Example 143, N-[(7-hydroxy-5-oxo-3-{4-[6-(trifluoromethyl)pyridin-3-yl]phenyl}-2,3-dihydro-5H-[1,4]oxazino[2,3,4-ij]quinolin-6-yl)carbonyl]glycine] it was 4.7 nM. Same read-out and setting: in the case of `Cc1ccc(-c2ccc(C3COc4cccc5c(O)c(C(=O)NCC(=O)O)c(=O)n3c45)cc2)cc1` (centres unmarked) [Example 144, N-{[7-hydroxy-3-(4′-methylbiphenyl-4-yl)-5-oxo-2,3-dihydro-5H-[1,4]oxazino[2,3,4-ij]quinolin-6-yl]carbonyl}glycine] it was 10 nM; in that of `COc1ccc(-c2ccc(C3COc4cccc5c(O)c(C(=O)NCC(=O)O)c(=O)n3c45)cc2)cc1` (centres unmarked) [Example 145, N-{[7-hydroxy-3-(4′-methoxybiphenyl-4-yl)-5-oxo-2,3-dihydro-5H-[1,4]oxazino[2,3,4-ij]quinolin-6-yl]carbonyl}glycine], 6.7 nM.

For `N#Cc1ccc(-c2ccc(C3COc4cccc5c(O)c(C(=O)NCC(=O)O)c(=O)n3c45)cc2)cc1` (centres unmarked) [Example 146, N-{[3-(4′-cyanobiphenyl-4-yl)-7-hydroxy-5-oxo-2,3-dihydro-5H-[1,4]oxazino[2,3,4-ij]quinolin-6-yl]carbonyl}glycine], the IC50 turned out to be 6.1 nM. The same measure, in the same setting: with `COc1ncccc1-c1ccc(C2COc3cccc4c(O)c(C(=O)NCC(=O)O)c(=O)n2c34)cc1` (centres unmarked) [Example 147, N-({7-hydroxy-3-[4-(2-methoxypyridin-3-yl)phenyl]-5-oxo-2,3-dihydro-5H-[1,4]oxazino[2,3,4-ij]quinolin-6-yl}carbonyl)glycine] the figure was 18 nM; with `O=C(O)CNC(=O)c1c(O)c2cccc3c2n(c1=O)C(c1ccc(-c2ccncc2)cc1)CO3` (centres unmarked) [Example 148, N-{[7-hydroxy-5-oxo-3-(4-pyridin-4-ylphenyl)-2,3-dihydro-5H-[1,4]oxazino[2,3,4-ij]quinolin-6-yl]carbonyl}glycine], 5.7 nM. For `Nc1ccc(-c2ccc(C3COc4cccc5c(O)c(C(=O)NCC(=O)O)c(=O)n3c45)cc2)cn1` (centres unmarked) [Example 149, N-({3-[4-(6-aminopyridin-3-yl)phenyl]-7-hydroxy-5-oxo-2,3-dihydro-5H-[1,4]oxazino[2,3,4-ij]quinolin-6-yl}carbonyl)glycine], the IC50 was determined as 13 nM. Same read-out and setting: in the case of `N#Cc1cccc(-c2ccc(C3COc4cccc5c(O)c(C(=O)NCC(=O)O)c(=O)n3c45)cc2)c1` (centres unmarked) [Example 150, N-{[3-(3′-cyanobiphenyl-4-yl)-7-hydroxy-5-oxo-2,3-dihydro-5H-[1,4]oxazino[2,3,4-ij]quinolin-6-yl]carbonyl}glycine] it was 13 nM.

On to `O=C(O)CNC(=O)c1c(O)c2cccc3c2n(c1=O)C(c1ccc(-c2cccnc2)cc1)CO3` (centres unmarked) [Example 151, N-{[7-hydroxy-5-oxo-3-(4-pyridin-3-ylphenyl)-2,3-dihydro-5H-[1,4]oxazino[2,3,4-ij]quinolin-6-yl]carbonyl}glycine], for which the IC50 was 9.2 nM. As for `O=C(O)CNC(=O)c1c(O)c2cccc3c2n(c1=O)C(c1ccc(-c2ccn[nH]2)cc1)CO3` (centres unmarked) [Example 152, 2-(3-(4-(1H-pyrazol-5-yl)phenyl)-7-hydroxy-5-oxo-3,5-dihydro-2H-[1,4]oxazino[2,3,4-ij]quinoline-6-carboxamido)acetic acid], the IC50 was 11 nM.

With `COc1ccc(-c2ccc3c(O)c(C(=O)NCC(=O)O)c(=O)n4c3c2OCC4)cn1` [Example 154, N-{[7-hydroxy-10-(6-methoxypyridin-3-yl)-5-oxo-2,3-dihydro-5H-[1,4]oxazino[2,3,4-ij]quinolin-6-yl]carbonyl}glycine], the IC50 came to 3.7 nM.

In the case of `Cc1noc(C)c1-c1ccc2c(O)c(C(=O)NCC(=O)O)c(=O)n3c2c1OCC3` [Example 155, N-{[10-(3,5-dimethylisoxazol-4-yl)-7-hydroxy-5-oxo-2,3-dihydro-5H-[1,4]oxazino[2,3,4-ij]quinolin-6-yl]carbonyl}glycine], the IC50 stood at 3.3 nM.

With `Nc1ccc(-c2ccc3c(O)c(C(=O)NCC(=O)O)c(=O)n4c3c2OCC4)cn1` [Example 156, N-{[10-(6-aminopyridin-3-yl)-7-hydroxy-5-oxo-2,3-dihydro-5H-[1,4]oxazino[2,3,4-ij]quinolin-6-yl]carbonyl}glycine], the IC50 came to 8.1 nM. On the same count and under the same terms, with `O=C(O)CNC(=O)c1c(O)c2cc(F)cc3c2n(c1=O)C(c1ccc(C(F)(F)F)cc1)CO3` (centres unmarked) [Example 158, 2-(9-fluoro-7-hydroxy-5-oxo-3-(4-(trifluoromethyl)phenyl)-3,5-dihydro-2H-[1,4]oxazino[2,3,4-ij]quinoline-6-carboxamido)acetic acid] the figure was 16 nM; with `O=C(O)CNC(=O)c1c(O)c2cc(Br)cc3c2n(c1=O)C(c1ccc(C(F)(F)F)cc1)CO3` (centres unmarked) [Example 159, 2-(9-bromo-7-hydroxy-5-oxo-3-(4-(trifluoromethyl)phenyl)-3,5-dihydro-2H-[1,4]oxazino[2,3,4-ij]quinoline-6-carboxamido)acetic acid], 47 nM. Same read-out and setting: with `O=C(O)CNC(=O)c1c(O)c2ccc(Br)c3c2n(c1=O)C(c1ccc(C(F)(F)F)cc1)CO3` (centres unmarked) [Example 161, 2-(10-bromo-7-hydroxy-5-oxo-3-(4-(trifluoromethyl)phenyl)-3,5-dihydro-2H-[1,4]oxazino[2,3,4-ij]quinoline-6-carboxamido)acetic acid] the figure was 16 nM; with `O=C(O)CNC(=O)c1c(O)c2c(F)ccc3c2n(c1=O)C(c1ccc(C(F)(F)F)cc1)CO3` (centres unmarked) [Example 162, 2-(8-fluoro-7-hydroxy-5-oxo-3-(4-(trifluoromethyl)phenyl)-3,5-dihydro-2H-[1,4]oxazino[2,3,4-ij]quinoline-6-carboxamido)acetic acid], 15 nM; with `O=C(O)CNC(=O)c1c(O)c2ccc(F)c3c2n(c1=O)C(c1ccc(C(F)(F)F)cc1)CO3` (centres unmarked) [Example 164, 2-(10-fluoro-7-hydroxy-5-oxo-3-(4-(trifluoroMethyl)phenyl)-3,5-dihydro-2H-[1,4]oxazino[2,3,4-ij]quinoline-6-carboxamido)acetic acid], 16 nM. Still for that read-out and setting: with `O=C(O)CNC(=O)c1c(O)c2ccc(Cl)c3c2n(c1=O)C(c1ccc(C(F)(F)F)cc1)CO3` (centres unmarked) [Example 165, 2-(10-chloro-7-hydroxy-5-oxo-3-(4-(trifluoromethyl)phenyl)-3,5-dihydro-2H-[1,4]oxazino[2,3,4-ij]quinoline-6-carboxamido)acetic acid] the figure was 19 nM; with `O=C(O)CNC(=O)c1c(O)c2cc(Cl)cc3c2n(c1=O)C(c1ccc(C(F)(F)F)cc1)CO3` (centres unmarked) [Example 166, 2-(9-chloro-7-hydroxy-5-oxo-3-(4-(trifluoromethyl)phenyl)-3,5-dihydro-2H-[1,4]oxazino[2,3,4-ij]quinoline-6-carboxamido)acetic acid], 16 nM. For the molecule `O=C(O)CNC(=O)c1c(O)c2cccc3c2n(c1=O)C(c1cccc(C(F)(F)F)c1)CO3` (centres unmarked) [Example 167], the IC50 is 74 nM.

The record behind these values is US9969752B2, “Inhibitors of HIF prolyl hydroxylase” (MERCK SHARP & DOHME CORP., priority 2014, dated 2018).
